Reference: patent US20080027088A1, “Imidazole-Based Hmg-Coa Reductase Inhibitors” (Warner-Lambert Company, LLC, priority 2004, published 2008)

Assays:
Assay type in all cases: in vivo
Settings in all cases: 0.3 mg/kg/day
[1] = system: ApoE KO mice fed a Western diet; experiment: Sphingomyelin in liver, plasma and aorta by LC/MS, 12 weeks
From the text: Analysis of Sphingolipids and Phospholipids by LC/MS and HPLC-Total lipids were extracted by the modified method of Bligh-Dyer extraction (E. G. Bligh and W. J. Dyer, Can. J. Med. Sci. 1959;37:911-917; and D. K. Perry, A. Bielawska and Y. A. Hannun, Methods Enzymol. 2000;312:22-31). A Micromass (Waters Corp., Milford, Mass.) Quattro Ultima tandem quadrupole mass spectrometer with a standard Z-sprayTM ion source, set to electrospray positive ionization mode, with MassLynxTM version 3.5 operating software, was used for all quantitative determinations. Source conditions were typically as follows: capillary 3.5 kV, source temperature 110 degrees C., and desolvation temperature 325 degrees C. Multipliers were set to 650 V, and the dwell time for each analyte was 100 milliseconds. Precursor-to-product ion transitions were established through direct infusion of each compound into the mass spectrometer. The following ion transitions were used for quantification: sphingomyelin (704→184 m/z), sphinganine (302→284 m/z), ceramide (566→264 m/z) and psychosine (462→282 m/z) as an internal standard. For the instrument, at a collision cell pressure of 2×10^-3 mbar argon, cone and collision voltages were as follows: sphingomyelin (45V, 25 eV), sphinganine (45V, 15 eV), ceramide (45V, 25 eV) and psychosine (45V, 25 eV). The liquid chromatography system was composed of twin Shimadzu (Columbia, Md.) LC-10ADvp HPLC pumps with a SCL-10Avp controller (flow rate 0.2 mL/minute), and a LEAP Technologies (Carrboro, N.C.) CTC PAL autosampler. For the quantitative method, the analytical column was a Phenomenex (Torrance, Calif.) Polar-RP (2.0×150 mm, 4 μm) with a […] (Torrance, Calif.) MetaGuard Polaris C8 2.0 mm direct connect (5 μm) guard column. […] Lipid extracts were analyzed by HPLC and evaporative light scattering detector to determine plasma sphingomyelin and phosphatidylcholine (PC) levels (R. Homan and M.K. Anderson, J. Chromatogr. B. Biomed. Sci. Appl. 1998;708:21-6). […] Sphingomyelin levels in liver (A), plasma (B), and aorta (C) were determined by LC/MS. […]

[2] = system: ApoE KO mice fed a Western diet; experiment: Plasma lipoprotein cholesterol distribution by FPLC, 12 weeks
Experimental: (§1) Animal experiments—Male C57BI/6J and ApoE KO mice on C57BI/6J background were obtained from the Jackson Laboratory (Bar Harbor, Me.) or Taconic (Germantown, N.Y.) (Plaque formation in ApoE KO mice is lipid-driven (A. S. Plump et al., Cell. 1992;71 (2):343-53)). Myriocin was mixed with Western diet containing 0.21% cholesterol and 21% fat. 8-12-week-old mice received 0.3 mg myriocin/kg/day for 12 weeks (Table 1). 10-12 week-old ApoE KO mice (n=8) were pre-fed a western diet for 2 weeks and mice received various concentrations of myriocin for 4 weeks in diet admix. Control groups consisted of ApoE KO mice fed normal chow or Western diet without myriocin, and normal chow-fed C57BI/6J mice. Body weight and chow feeding was measured every week to examine the food consumption. For the femoral artery cuff model, 8-10 week-old male ApoE KO mice were anethetized and the right femoral artery was dissected from its surroundings. A nonconstrictive polyethylene cuff (Portex, 0.40-mm inner diameter, 0.80-mm outer diameter, and 1.5-mm length) was placed looselyaround the right femoral artery.
(§2) Plasma lipids and serum amyloid A measurement—Mice were sacrificed by CO2 inhalation and blood was collected through cardiac puncture. Plasma concentrations of total cholesterol and triglyceride were determined enzymatically on a Cobas Mira Plus auto-analyzer using Cholesterol R1 and Triglycerides Reagent methods, respectively (Roche Diagnostics, Indiana, USA). Colormetric changes were measured at 500 nm. Lipoproteins were separated from mouse plasma by fast-protein liquid chromatography utilizing a Superose 6HR column. Cholesterol distribution among lipoproteins was determined by in-line post column analysis (K. A. Kieft, T. M. Bocan and B. R. Krause, J. Lipid Res. 1991; 32:859-66). Serum Amyloid A (SAA) protein in plasma was measured by ELISA according to the manufacturer's instructions (Biosource).
FIG. 6. Plasma Lipoprotein Distribution of ApoE KO Mice Fed a Western Diet. After 12 weeks of diet admix myriocin treatment (0.3 mg/kg/day), mice were sacrificed and plasma was isolated for lipoprotein composition. βVLDL (A), LDL (B) and HDL (C) Lipoproteins were separated from mouse plasma by fast-protein liquid chromatography (FPLC) utilizing a Superose 6HR column. Cholesterol distribution among lipoproteins was determined by in-line post column analysis (Kieft, K. A., T. M. A. Bocan, B. R. Krause, J. Lipid Res. 1991, 32:859-866.). The values reported are mean±SEM (n=5, *P<0.01, Western diet vs other study groups; n=5, #P<0.05, Western diet plus myriocin vs normal chow).

[3] = system: ApoE KO mice fed a Western diet; experiment: Plasma total cholesterol and triglyceride, 12 weeks
Experimental: as §1, with “For the femoral artery cuff model, 8-10 week-old male ApoE KO mice were anethetized and the right femoral artery was dissected from its surroundings. A nonconstrictive polyethylene cuff (Portex, 0.40-mm inner diameter, 0.80-mm outer diameter, and 1.5-mm length) was placed looselyaround the right femoral artery.” left out
as §2, with “Lipoproteins were separated from mouse plasma by fast-protein liquid chromatography utilizing a Superose 6HR column.” left out, “Serum Amyloid A (SAA) protein in plasma was measured by ELISA according to the manufacturer's instructions (Biosource).” left out
FIG. 7. […] Colormetric changes were measured at 500 nm. […]

[4] = vs Western diet-fed ApoE KO mice

With `CCCCCCC(=O)CCCCCC/C=C/C[C@@H](O)[C@H](O)[C@@](N)(CO)C(=O)O` [myriocin] the “aorta SM levels decreased” value [1] was 20%, the “plasma SM lowered” value ([1]; Western diet-fed ApoE KO mice) was 64% and the “SM accumulation in liver” value [1, 4] was “lowered”. For the same compound, the “plasma apoB levels” value ([2]; comparable to standard chow-fed group) was “lowered”, the HDL-cholesterol content increased [2, 4] was 54% and the LDL-cholesterol lowered [2, 4] was 35%. For the same compound, the βVLDL-cholesterol lowered [2, 4] was 51%, the “plasma TG lowered” value [3] was 45% and the plasma cholesterol lowered [3] was 41%.
